“Also recorded” adds a separate entry of the source.
Key:
[1] = tested on: mRNA transcripts (insulin, MafA, ZnT-8, Ngn3, NeuroD1, Pou3F4, somatostatin) in E13.5 Rat pancreases; assay: Real-time PCR of mRNA transcripts in cultured E13.5 rat pancreases; format: cell-based; details: for insulin mRNA level increase / ZnT-8 and MafA expression: Glib 5D
From the text: (§1) Pregnant Wistar rats were purchased from the Janvier Breeding centre (CERJ, LeGenet, France). Cftr-knockout (Cftr−/−) and wild-type (Cftr+/+) embryos were obtained from the progeny of heterozygous-heterozygous for the S489X mutation (Snouwaert et al. 1992) matings (CDTA, Orléans, France). The first day postcoitum was taken as embryonic day (E)0.5. Pregnant rats were killed with CO2 asphyxiation and pregnant mice by cervical dislocation according to guidelines issued by the French Animal Care Committee. Dorsal pancreatic buds from E13.5 rat and E12.5 mice embryos were dissected as described previously (Miralles et al. 1998). Briefly, the stomach, pancreas and a small portion of the intestine were dissected together, and then the pancreas primordium was isolated.
(§2) Dorsal pancreatic rudiments were cultured on 0.45 μm filters (Millipore) at the air-medium interface in a 35 mm sterile Petri dishes containing 2 ml RPMI-1640 medium (Invitrogen) supplemented with 100 U/ml penicillin, 100 μg/ml streptomycin, 10 mmol/L HEPES, 2 mmol/L L-glutamine, 1× non-essential aminoacids (Invitrogen) and 10% heat-inactivated fetal calf serum (HyClone, Logan, Utah, USA). Glibenclamide (MP Biomedical), and Glycine hydrazide (GlyH-101)(Calbiochem), used at the indicated concentrations, were first dissolved as concentrated solutions in dimethylsulfoxide DMSO (Sigma), the final concentration of DMSO in the culture medium was less than 0.5% (vol/vol). Glibenclamide and GlyH-101 were added to the media daily. The cultures were incubated at 37° C. in a humidified atmosphere composed of 95% air and 5% CO2. At the end of the culture period, the pancreases were photographied, and fixed as described below or harvested for RNA extraction.
Total RNA was isolated from pools of at least three pancreases using the Qiagen RNeasy Microkit (Qiagen, Courtaboeuf, France) and reverse transcribed using Superscript reagents (Invitrogen). Real-time PCR was performed with the 7300 Fast real-time PCR system (Applied Biosystem) using either Taqman universal PCR master mix or SYBR green PCR master mix (Applied Bio system) with primers and labelled probes specific for each gene. Peptidylpropyl isomerase A/Cyclophilin A was used as endogenous control and E16.5 pancreas cDNA as calibrator sample. The data were analyzed by comparative cycle threshold method (Livak and Schmittgen 2001) and presented as the fold change in gene expression. At least three pools of explants were analysed by condition.

[2] = tested on: human liver cell line HepG2; details: HepG2 cultured with 100 μM glibenclamide; cited from earlier work
[3] = tested on: E13.5 Rat embryonic pancreases; assay: Organ culture of E13.5 rat embryonic pancreases: morphology, immunohistochemistry and surface/cell quantification; format: cell-based
From the text: as §1, §2
The pancreatic rudiments were fixed in 10% formalin, pre-embedded in agarose gel (4% of type VII low-gelling-temperature agarose [Sigma] in H2O) and embedded in paraffin. Immunohistochemistry was performed on 4-μm paraffin sections as previously described) (Duvillie et al. 2006). The primary antibodies were mouse anti insulin (1/2000; Sigma), rabbit anti-glucagon (1/1000; Diasorin), rabbit anti-amylase (1/300; Sigma), rabbit anti-carboxypeptidase A (CPA) (1/600; Biogenesis, Kidlington, Oxford, UK), rabbit anti-PDX1 (1/1000) (Duvillie et al. 2006) mouse anti-BrdU (1/2; Amersham Biosciences, Buckingham, UK), rabbit anti-Proprotein Convertase Subtilisin/Kexin 1/3 (PCSK1/3), rabbit anti-Ngn3 (1/100, (Guillemain et al. 2007) The fluorescent secondary antibodies were fluorescein anti-rabbit antibody (1/200; Jackson Immunoresearch, Baltimore, Md., USA), fluorescein goat anti-rabbit Alexa Fluor 488 (1/400; Invitrogen) and Texas red anti-mouse antibody (1/200; Jackson). Nuclei were stained in blue with Hoechst 33342 (0.3 μg/ml; Invitrogen). Ngn3 detection was performed as previously described (Guillemain et al. 2007) using the Vectastain elite ABC kit (Vector laboratories).
(§3) To quantify the surface area of insulin, glucagon, PCSK1/3, CPA and amylase-expressing cells, all sections of each pancreatic rudiment were digitized. Alternate sections were examined to avoid counting the same cell twice. The surface of insulin, glucagon, PCSK1/3, CPA, amylase and Hoechst stainings were quantified using Iplab (Scanalytics). The stained areas were summed to obtain the total surface area per rudiment in mm^2. To measure proliferation of the early progenitors expressing PDX1, we counted the frequency of BrdU positive progenitors expressing PDX1 among 3000 early progenitors expressing PDX1 per rudiment. To quantify the absolute number of NGN3-expressing cells, pancreatic rudiments were sectioned and all sections were stained with an anti-NGN3 antibody. Positive cells were counted on all sections of each pancreatic rudiment. A minimum of three rudiments was analyzed per condition.

CFTR channel = CFTR channel (Homo sapiens, UniProt P13569); details: open-channel block mechanism; cited from earlier work
CFTR channel, sequence (P13569 whole entry): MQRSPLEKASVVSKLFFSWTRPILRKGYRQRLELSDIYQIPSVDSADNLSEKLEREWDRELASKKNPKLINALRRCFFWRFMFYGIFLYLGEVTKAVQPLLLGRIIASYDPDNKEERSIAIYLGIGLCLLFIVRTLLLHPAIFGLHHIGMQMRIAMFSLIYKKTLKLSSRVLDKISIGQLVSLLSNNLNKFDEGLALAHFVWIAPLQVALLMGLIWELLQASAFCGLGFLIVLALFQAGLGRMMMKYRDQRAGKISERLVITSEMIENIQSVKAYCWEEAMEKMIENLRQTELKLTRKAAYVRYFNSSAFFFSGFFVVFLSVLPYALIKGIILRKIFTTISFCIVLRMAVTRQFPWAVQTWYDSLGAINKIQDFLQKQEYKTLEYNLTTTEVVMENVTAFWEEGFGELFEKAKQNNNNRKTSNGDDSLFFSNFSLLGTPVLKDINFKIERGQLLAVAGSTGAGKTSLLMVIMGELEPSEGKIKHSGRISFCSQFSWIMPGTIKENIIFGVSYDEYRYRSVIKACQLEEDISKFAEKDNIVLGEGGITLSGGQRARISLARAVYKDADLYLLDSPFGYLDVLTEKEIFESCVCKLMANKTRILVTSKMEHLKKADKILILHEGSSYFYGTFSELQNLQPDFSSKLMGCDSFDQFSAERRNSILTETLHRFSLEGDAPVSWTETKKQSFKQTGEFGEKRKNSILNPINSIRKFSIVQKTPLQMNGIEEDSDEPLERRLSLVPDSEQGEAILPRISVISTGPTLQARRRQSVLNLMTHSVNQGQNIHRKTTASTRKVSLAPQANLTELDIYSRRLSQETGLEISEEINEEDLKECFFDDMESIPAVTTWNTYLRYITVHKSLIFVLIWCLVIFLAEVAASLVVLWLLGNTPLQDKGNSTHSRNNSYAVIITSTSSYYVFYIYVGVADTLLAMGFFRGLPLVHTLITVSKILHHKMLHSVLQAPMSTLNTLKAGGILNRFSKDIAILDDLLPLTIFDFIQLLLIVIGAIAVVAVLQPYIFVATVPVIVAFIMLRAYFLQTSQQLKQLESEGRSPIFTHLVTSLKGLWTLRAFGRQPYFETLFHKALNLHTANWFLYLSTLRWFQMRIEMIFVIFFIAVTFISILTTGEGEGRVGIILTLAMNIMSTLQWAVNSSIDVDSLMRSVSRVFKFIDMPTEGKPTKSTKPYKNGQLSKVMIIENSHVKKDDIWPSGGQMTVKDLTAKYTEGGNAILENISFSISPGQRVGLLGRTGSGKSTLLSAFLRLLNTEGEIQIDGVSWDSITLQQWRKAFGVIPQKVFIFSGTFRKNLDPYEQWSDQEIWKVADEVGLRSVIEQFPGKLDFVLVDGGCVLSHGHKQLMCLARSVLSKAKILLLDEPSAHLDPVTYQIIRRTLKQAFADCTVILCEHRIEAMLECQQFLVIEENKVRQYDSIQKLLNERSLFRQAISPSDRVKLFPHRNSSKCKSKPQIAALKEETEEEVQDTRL

[4] = tested on: E13.5 Rat embryonic pancreases (PDX-1+ progenitors, insulin-expressing cells); assay: BrdU incorporation (proliferation) in cultured E13.5 rat pancreases; format: cell-based; details: 10 μM GlyH-101, D5, BrdU during last hour
Description: as §2, with “Glibenclamide and GlyH-101 were added to the media daily. The cultures were incubated at 37° C. in a humidified atmosphere composed of 95% air and 5% CO2. At the end of the culture period, the pancreases were photographied, and fixed as described below or harvested for RNA extraction.” left out
as §3, with “Alternate sections were examined to avoid counting the same cell twice.” left out, “The stained areas were summed to obtain the total surface area per rudiment in mm^2.” left out, “A minimum of three rudiments was analyzed per condition.” left out

[5] = tested on: E12.5 pancreases from knockout (CFTR-/-) mice; assay: Organ culture of E12.5 pancreases from Cftr knockout (Cftr-/-) mice, insulin-positive cell area; format: cell-based; details: 10 μM GlyH-101, 6 days of culture
Description: (§4) FIG. 1: Effects of GlyH-H101 on endocrine cell development. Quantification by real-time PCR of insulin (A) and MafA (B) mRNA transcripts in E 13.5 Rat pancreases before (D0) and after 1, 3, 5 and 7 days of culture (D1, D3, D5 and D7 respectively) with or without 10 μM GlyH-101. Each data point represents the mean±sem of at least four independent experiments ***, p<0.001. (C) Immunohistological analysis of E13.5 Rat pancreases cultured 5 days in the presence or in absence of 10 μM GlyH-101. Insulin and amylase staining were respectively in red and green. Nuclei were stained in blue with Hoechst. Scale bar: 50 μm (D). β cell differentiation was evaluated by quantification of the absolute surface area occupied by insulin staining in E 13.5 Rat pancreases after 5 days of culture in presence or in absence of 10 μM GlyH-101. Values are means±sem of at least three independent experiments *, p<0.05; (E) Quantification by real-time PCR of Ngn3 transcripts in E13.5 Rat pancreases before (D0) and after 1, 3, 5 and 7 days of culture (D0, D1, D3, D5 and D7 respectively) with or without 10 μM GlyH-101. […] (G) Quantification of the number of NGN3 positive-cells in E13.5 Rat pancreases cultured for 5 days in presence or in absence of 10 μM GlyH-101. […]
(§5) To quantify the surface area of insulin, glucagon, PCSK1/3, CPA and amylase-expressing cells, all sections of each pancreatic rudiment were digitized. […]

[6] = tested on: E12.5 pancreases from WT (CFTR+/+) mice; assay: Organ culture of E12.5 pancreases from WT (Cftr+/+) mice, insulin-positive cell area; format: cell-based; details: 10 μM GlyH-101, 6 days of culture
Description: as §4, §5

[7] = tested on: beta cell mass of embryos of pregnant mice; assay: In vivo administration to pregnant mice, insulin staining surface of embryonic pancreas; details: E12.5 pregnant mice, 10 mg/kg/day for 5 days, intraperitoneal, embryos harvested at E18.5
Description: To evaluate its effects in vivo, GlyH 101 was administrated to a E12.5 pregnant mice for 5 days at 10 mg/kg/day (according to Yang et al. 2008) in a saline DMSO solution ([…]) by intraperitoneal injection two times a day. The embryos were harvested at E18.5 and the pancreas fixed for histological immunostaining. The surface of insulin staining was quantified and normalized to the whole pancreatic tissue.

[8] = 100 μM, 7 days of culture, vs absence

COc1ccc(Cl)cc1C(=O)NCCc1ccc(S(=O)(=O)NC(=O)NC2CCCCC2)cc1 [glibenclamide]
NeuroD1 expression ([1]; 100 μM, D5): significantly increased; also recorded: twofold | NeuroD1 expression ([1]; 100 μM, D7): enhanced | Pou3F4/Brn4 mRNA level ([1]; 100 μM, D7): significant increase | NeuroD1 mRNA levels ([1]; 100 μM, after 1 and 3 days of culture, vs absence): similar | Ngn3 expression increase ([1]; 100 μM, after 5 days of culture, p<0.001): sevenfold; also recorded: seven | increase in somatostatin expression ([1]; 100 μM, after 7 days of culture): twofold | Ngn3 mRNA level ([1]; 100 μM, after 7 days of culture, p<0.001): dramatically higher; also recorded: threefold | insulin expression (real-time PCR) ([1]; 100 μM, as early as D3): strongly reduced | Ngn3 expression ([1]; 100 μM, day 1 and 3, vs absence): similar | expression of β-cell markers ZnT-8 and MafA ([1]; 100 μM, over the 7 days of culture): did not affect | reversal of low insulin content and reduced insulin gene transcription ([1]; 2 days after glibenclamide removal): completely reverted | insulin mRNA level increase ([1]; D9, vs without): threefold | insulin mRNA level increase ([1]; D11, vs without): twofold | insulin mRNA level increase ([1]; D14, vs without): threefold | ZnT-8 and MafA expression ([1]; after 9, 11 and 14 days of culture, p<0.01): dramatic increase | ZnT-8 and MafA expression ([1]; after 7 days of culture): similar | insulin mRNA level ([1]; glibenclamide only first 5 days of culture (Glib 5D), D7, vs without): identical | toxicity and apoptosis [2]: no toxicity nor apoptosis | pancreatic growth ([3]; 10 nM, 100 nM, 1, 10 or 100 μM glibenclamide vs control, 7 days of culture): similar | number of NGN3+ cells (immunohistochemistry) ([3]; 100 μM, 5 days of culture, vs absence): threefold | increase of the number of glucagon-expressing cells ([3]; 100 μM, 7 days of culture): 3.5 fold | decrease of surface area occupied by the insulin-cell population [3, 8]: 70% | surface area occupied by amylase- and carboxypeptidaseA-positive cells [3, 8]: No differences | surface area occupied by PCSK1/3 staining in PDX-1+ cells ([3]; 100 μM, 7 days of culture, vs without): similar | exocrine (acinar and ductal) development ([3]; 100 μM, 7 days, amylase, carboxypeptidaseA, SPP1 and CFTR markers): did not to modify | apoptosis (Hoechst staining of the nuclei) ([3]; 10 and 100 μM, 7 days of culture, vs without): no difference | overall size of pancreases (quantitative analysis) ([3]; 10 or 100 μM, 7 days of culture): lack of glibenclamide toxicity | insulin-staining area (insulin-positive cells) ([3]; Glib 5D-treated pancreas): significant increase | insulin-expressing cells observed ([3]; Glib-5D pancreases at D9, D11 or D14): A large number | insulin-containing cells detected ([3]; glibenclamide present throughout 9, 11 or 14 days of culture): less | pancreas development ([3]; up to 1 micromolar): did not affect | CFTR channel inhibition (CFTR channel): inhibits CFTR channel in a dose-dependant manner

O=C(CNc1ccc2ccccc2c1)NN=Cc1cc(Br)c(O)c(Br)c1O [GlyH-101, N-2-napthalenyl-[(3,5-dibromo-2,4-dihydroxyphenyl)methylene]glycine hvdrazide]
proliferative rate of insulin-expressing cells (BrdU) [4]: No differences | increase of MafA mRNA transcripts ([1]; 10 μM GlyH-101, D3): more than twofold | increase of insulin mRNA transcripts ([1]; 10 μM GlyH-101, D3): more than twofold | increase in Ngn3 expression (real-time PCR) ([1]; 10 μM GlyH-101, D5): 8 fold | insulin expression ([1]; 10 μM GlyH-101, after 5 and 7 days of culture): sixfold | Ngn3 expression (real-time PCR) ([1]; 10 μM GlyH-101, from D1): strong increase | insulin+ cell area [5]: unable to modify | insulin+ cell area [6]: increase | exocrine differentiation ([3]; 10 μM GlyH-101): did not observe any effects | area occupied by insulin-positive cells ([3]; 10 μM GlyH-101, 5 days of culture): dramatic increase | pool/number of Ngn3+ pancreatic endocrine progenitor cells ([3]; 10 μM GlyH-101, D5): increased number; also recorded: amplified and maintained | beta cell mass (insulin staining surface normalized to whole pancreatic tissue) [7]: increased
